Data published in US20100316529A1, “Anti-Microbial Systems and Methods” (priority 2001, published 2010).
“And” between values parts separate entries of the source, which are not always exact repeats. Equal entries are not always repeated.

Legend:
Type in all cases: cell-based
Steno. maltophilia = assay: EDTA salt dilution test, MIC/MBC
C. lucitaniae = assay: EDTA agar dilution method, yeasts, MIC/MBC; details: Exhibit C
Description: (§1) Protocol 3: Agar dilutions.
Do this until all the media is used up.

Cornyeform amycolatum = assay: EDTA salt dilution test, MIC/MBC
Kleb. ornitholytica = assay: EDTA salt dilution test, MIC/MBC
Ent. cloacae = assay: EDTA salt dilution test, MIC/MBC; details: three entries
C. guilliermondii = assay: EDTA agar dilution method, yeasts, MIC/MBC; details: Exhibit C
Method: (§2) The bactericidal effects were measured as the Minimum Bactericidal Concentration (MBC), while the inhibitory effects were measured as the Minimum Inhibitory Concentration (MIC). In each case, the concentration was measured as milligrams of the disinfectant salt per milliliter of water (mg/ml).
as §1
(§3) Prepare nutrient agar plates with increasing concentrations of EDTA, 0, 0.5, 1, 1.5, 2, 4, 6, 8, 10, 15, 20, 25, 30 mg/mL, using the following method. • Pour 300 mL distilled water into a sterile glass bottle. • Add the appropriate amount of EDTA. This is the concentration desired ×300, in grams. • Once the EDTA has fully dissolved, add 8.4 g of Nutrient agar powder (Oxoid). Mix thoroughly. • Do this for each concentration of EDTA required. […] Do this until all the media is used up. Label the plates with the concentration of EDTA they contain. • These plates can then be stored, until they are needed, in a 4° C. fridge. • Use an automatic plate inoculator to inoculate each plate with 21 organisms.

C. parapsilosis = assay: EDTA agar dilution method, yeasts, MIC/MBC; details: Exhibit C
Method: as §2, §1, §3

C. glabrata = assay: EDTA agar dilution method, yeasts, MIC/MBC; details: two entries, Exhibit C
Method: as §2, §1, §3

C. albicans = assay: EDTA agar dilution method, yeasts, MIC/MBC; details: three entries, Exhibit C
Method: as §2, §1, §3

C. tropicalis = assay: EDTA agar dilution method, yeasts, MIC/MBC; details: Exhibit C
Method: as §2, §1, §3

Acinetobacter baumanii = assay: EDTA salt dilution test, MIC/MBC; details: two entries, Exhibit A2
Kleb. oxytoca = assay: EDTA salt dilution test, MIC/MBC
variety of microbes = assay: Efficacy of disinfectant salts of EDTA against a number of microbes; details: general statement
Method: The Applicant has tested the efficacy of a number of disinfectant salts of EDTA against a number of microbes.
(§4) Protocol one: Broth dilutions:
(§5) Inoculate a 25 ml nutrient broth (Oxoid No2) in a sterile universal container with one of the following organisms; Pseudomonas aeruginosa, Proteus Mirabilis, E. coli, Klebsiella pneumoniae, Staph aureus, Coagulase negative staphylococci, Enterococcus faecalis or MRSA.
(§6) Incubate the broth at 37° C. overnight.
Next day make up a series of nutrient broths containing a dilution of the appropriate EDTA as in the following list; 0 mg/mL, 0.25 mg/mL, 0.5 mg/mL, 1.0 mg/mL, 1.5 mg/mL, 2.0 mg/mL, 4.0 mg/mL, 6.0 mg/mL, 8.0 mg/mL, 10 mg/mL, 15 mg/mL, 20 mg/mL, 25 mg/mL, 30 mg/ml, 40 mg/mL, 50 mg/mL, 60 mg/mL, 70 mg/mL, 80 mg/mL, 90 mg/mL, 100 mg/mL.
(§7) To make these concentrations put the EDTA needed for 10 mLs in only 9 mLs of broth in sterile universal containers, as this will be diluted further when the organisms are added.
(§8) Dilute the overnight broth cultures to 10^7 organisms/mL using more sterile nutrient broth.
(§9) Add 1 mL of this diluent to each of the EDTA series broths. This gives a final concentration of 10^6 organism/mL in the EDTA broths.
(§10) Incubate for 18 hours at 37° C.
Next day visually read the MIC's by observing the turbidity of the broths. […]
(§11) Next day read the MBC's by performing colony counts.

Ent. faeculm = assay: EDTA salt dilution test, MIC/MBC
Proteus vulgaris = assay: EDTA salt dilution test, MIC/MBC
VRE = assay: EDTA salt dilution test, MIC/MBC; details: two entries
Method: as §4, §5, §6, §7, §8, §9, §10
(§12) Next day visually read the MIC's by observing the turbidity of the broths.
(§13) Plate out 1 uL of each dilution onto fresh blood agar plate and spread using a sterile plastic spreader.
(§14) Incubate overnight at 37° C.
as §11

MRSA = assay: EDTA salt dilution test, MIC/MBC; details: five entries
Method: as §4, §5, §6, §7, §8, §9, §10, §12, §13, §14, §11

Kleb. pnemoniae = assay: EDTA salt dilution test, MIC/MBC; details: two entries
Method: as §4, §5, §6, §7, §8, §9, §10, §12, §13, §14, §11

S. epidermidis = assay: EDTA salt dilution test, MIC/MBC; details: two entries
Method: as §4, §5, §6, §7, §8, §9, §10, §12, §13, §14, §11

S. lentus = assay: EDTA salt dilution test, MIC/MBC
Method: as §4, §5, §6, §7, §8, §9, §10, §12, §13, §14, §11

S. aureus = assay: EDTA salt dilution test, MIC/MBC; details: five entries
Method: as §4, §5, §6, §7, §8, §9, §10, §12, §13, §14, §11

Pseudomonas aeruginosa = assay: EDTA salt dilution test, MIC/MBC; details: two entries
Method: as §4, §5, §6, §7, §8, §9, §10, §12, §13, §14, §11

E. coli = assay: EDTA salt dilution test, MIC/MBC; details: three entries
Method: as §4, §5, §6, §7, §8, §9, §10, §12, §13, §14, §11

S. xylosus = assay: EDTA salt dilution test, MIC/MBC
Method: as §4, §5, §6, §7, §8, §9, §10, §12, §13, §14, §11

Proteus mirabilis = assay: EDTA salt dilution test, MIC/MBC; details: two entries
Method: as §4, §5, §6, §7, §8, §9, §10, §12, §13, §14, §11

S. simulans = assay: EDTA salt dilution test, MIC/MBC
Method: as §4, §5, §6, §7, §8, §9, §10, §12, §13, §14, §11

Ent. faecalis = assay: EDTA salt dilution test, MIC/MBC
Method: as §4, §5, §6, §7, §8, §9, §10, §12, §13, §14, §11

S. capitis = assay: EDTA salt dilution test, MIC/MBC; details: two entries
Method: as §4, §5, §6, §7, §8, §9, §10, §12, §13, §14, §11

Pseudomonas sp. = assay: EDTA salt dilution test, MIC/MBC
Method: as §4, §5, §6, §7, §8, §9, §10, §12, §13, §14, §11

Coryneform strait/amy = assay: EDTA salt dilution test, MIC/MBC

## O=C([O-])CN(CCN(CC(=O)O)CC(=O)O)CC(=O)[O-].[K+].[K+] [Dipotassium EDTA]
Steno. maltophilia; Exhibit A1
  MBC, minimum concentration required to kill an entire population: 10000 µg/mL
Steno. maltophilia; Exhibit A2
  MIC, minimum concentration required to inhibit growth: <500 µg/mL
C. lucitaniae
  MIC's, Minimum Inhibitory Concentration: 500 µg/mL
Cornyeform amycolatum; Exhibit A1
  MBC, minimum concentration required to kill an entire population: <500 µg/mL
Cornyeform amycolatum; Exhibit A2
  MIC, minimum concentration required to inhibit growth: <500 µg/mL
Kleb. ornitholytica; Exhibit A1
  MBC, minimum concentration required to kill an entire population: >15000 µg/mL
Kleb. ornitholytica; Exhibit A2
  MIC, minimum concentration required to inhibit growth: 1000 µg/mL
Ent. cloacae; Exhibit A1
  MBC, minimum concentration required to kill an entire population: 15000 µg/mL and >15000 µg/mL
Ent. cloacae; Exhibit A2
  MIC, minimum concentration required to inhibit growth: 4000 µg/mL and 6000 µg/mL
C. guilliermondii
  MIC's, Minimum Inhibitory Concentration: 500 µg/mL
C. parapsilosis
  MIC's, Minimum Inhibitory Concentration: 500 µg/mL
C. glabrata
  MIC's, Minimum Inhibitory Concentration: 500 µg/mL
C. albicans
  MIC's, Minimum Inhibitory Concentration: 500 µg/mL
C. tropicalis
  MIC's, Minimum Inhibitory Concentration: 1000 µg/mL
Acinetobacter baumanii
  MIC, minimum concentration required to inhibit growth: <500 µg/mL
Kleb. oxytoca; Exhibit A1
  MBC, minimum concentration required to kill an entire population: 15000 µg/mL
Kleb. oxytoca; Exhibit A2
  MIC, minimum concentration required to inhibit growth: 1000 µg/mL
Variety of microbes
  anti-microbial (antifungal and antibacterial) properties compared with the disodium salt: superior to disodium EDTA
Ent. faeculm; Ent. faecuim, Exhibit A2
  MIC, minimum concentration required to inhibit growth: <500 µg/mL
Ent. faeculm; Ent. faeculm, Exhibit A1
  MBC, minimum concentration required to kill an entire population: 8000 µg/mL
Proteus vulgaris; Exhibit A1
  MBC, minimum concentration required to kill an entire population: >15000 µg/mL
Proteus vulgaris; Exhibit A2
  MIC, minimum concentration required to inhibit growth: 1000 µg/mL
VRE; Exhibit A1
  MBC, minimum concentration required to kill an entire population: 8000 µg/mL
VRE; Exhibit A2
  MIC, minimum concentration required to inhibit growth: <500 µg/mL and 1000 µg/mL
MRSA; Exhibit A1
  MBC, minimum concentration required to kill an entire population: 6000 µg/mL and 10000 µg/mL and 8000 µg/mL
MRSA; Exhibit A2
  MIC, minimum concentration required to inhibit growth: 1000 µg/mL
Kleb. pnemoniae; Exhibit A1
  MBC, minimum concentration required to kill an entire population: 15000 µg/mL
Kleb. pnemoniae; Exhibit A2
  MIC, minimum concentration required to inhibit growth: 1500 µg/mL and 1000 µg/mL
S. epidermidis; Exhibit A1
  MBC, minimum concentration required to kill an entire population: 8000 µg/mL
S. epidermidis; Exhibit A2
  MIC, minimum concentration required to inhibit growth: <500 µg/mL
S. lentus; Exhibit A1
  MBC, minimum concentration required to kill an entire population: 10000 µg/mL
S. lentus; Exhibit A2
  MIC, minimum concentration required to inhibit growth: <500 µg/mL
S. aureus; Exhibit A1
  MBC, minimum concentration required to kill an entire population: 6000 µg/mL and 8000 µg/mL
S. aureus; Exhibit A2
  MIC, minimum concentration required to inhibit growth: 1000 µg/mL
Pseudomonas aeruginosa; Exhibit A1
  MBC, minimum concentration required to kill an entire population: >15000 µg/mL
Pseudomonas aeruginosa; Exhibit A2
  MIC, minimum concentration required to inhibit growth: 1000 µg/mL
E. coli; Exhibit A1
  MBC, minimum concentration required to kill an entire population: >15000 µg/mL and 15000 µg/mL
E. coli; Exhibit A2
  MIC, minimum concentration required to inhibit growth: 1000 µg/mL
S. xylosus; Exhibit A1
  MBC, minimum concentration required to kill an entire population: 6000 µg/mL
S. xylosus; Exhibit A2
  MIC, minimum concentration required to inhibit growth: <500 µg/mL
Proteus mirabilis; Exhibit A1
  MBC, minimum concentration required to kill an entire population: >15000 µg/mL and 15000 µg/mL
Proteus mirabilis; Exhibit A2
  MIC, minimum concentration required to inhibit growth: <500 µg/mL
S. simulans; Exhibit A1
  MBC, minimum concentration required to kill an entire population: 8000 µg/mL
S. simulans; Exhibit A2
  MIC, minimum concentration required to inhibit growth: <500 µg/mL
Ent. faecalis; Exhibit A1
  MBC, minimum concentration required to kill an entire population: 15000 µg/mL
Ent. faecalis; Exhibit A2
  MIC, minimum concentration required to inhibit growth: 1000 µg/mL
S. capitis; Exhibit A1
  MBC, minimum concentration required to kill an entire population: 8000 µg/mL and 10000 µg/mL
S. capitis; Exhibit A2
  MIC, minimum concentration required to inhibit growth: <500 µg/mL
Pseudomonas sp.; Exhibit A1
  MBC, minimum concentration required to kill an entire population: 15000 µg/mL
Pseudomonas sp.; Exhibit A2
  MIC, minimum concentration required to inhibit growth: 1000 µg/mL
Coryneform strait/amy; Exhibit A1
  MBC, minimum concentration required to kill an entire population: <500 µg/mL
Coryneform strait/amy; Exhibit A2
  MIC, minimum concentration required to inhibit growth: <500 µg/mL
